In US20080287534A1, “Method for Controlling Insect Pests on Plants” (priority 2005, published 2008):

Assays:
Format in all cases: in vivo
[1] = tested on: beet armyworm (Spodoptera exigua); test: Test A: control of beet armyworm by soil application to tomato plants, excised-leaf feeding, visual mortality
Experimental: For evaluating control of beet armyworm (Spodoptera exigua), methomyl was in liquid formulation as Lannate® LV (29% of active ingredient). Oxamyl was in liquid formulation as Vydate® L (24% active ingredient).
The test compounds were dissolved in water. Enough water was added to make 29 ppm of active ingredient for Lannate® LV and 500 ppm of active ingredient for Vydate® L. To obtain the desired mixture concentrations of each compound, twice the desired concentration of each of the two mixture partner compounds were mixed together in equal volumes.
(§1) Diluted solutions (50 mL) of the test compounds were applied to the soil surface of five-week-old tomato plants at the desired concentration, corresponding to 47 g a.i./ha (g active ingredient/hectare) of methomyl and 807 g a.i./ha of oxamyl. The plants were maintained in a greenhouse for 24 h. From each plant, leaves were excised, cut into pieces, and placed singly into 5.5 cm-by-3.5 cm cell of a sixteen-cell plastic tray. Each cell contained solidified agar (3 to 5 mL) to prevent desiccation. A single 4-day old insect larva was placed in each cell, with one tray per treatment. Trays were held in a growth chamber at 25° C., 16-hour light/8-hour dark photoperiod, 60% relative humidity for 4 days.

[2] = tested on: cabbage looper (Trichoplusia ni); test: Test B: control of cabbage looper by soil application to cabbage plants, excised-leaf feeding, visual mortality; conditions: 96 h, read-out: % Mortality (Observed)
Experimental: (§2) For evaluating control of cabbage looper (Trichoplusia ni) and tobacco budworm (Heliothis virescens), methomyl was in liquid formulation as Lannate® LV (29% of active ingredient). Oxamyl was in liquid formulation as Vydate® L (24% of active ingredient).
(§3) The test compounds were dissolved in water. Enough water was added to make 57 ppm of the Lannate® LV and 250 and 500 ppm of active ingredient for Vydate® L. To obtain the desired mixture concentrations of each compound, twice the desired concentration of each of the two mixture compounds were mixed together in equal volumes.
as §1, with “For the cabbage looper trial, diluted solutions (50 mL) of the test compounds were applied to the soil surface of five-week-old cabbage plants at the desired concentrations, corresponding to 135 g a.i./ha (g active ingredient/hectare) of methomyl and 404 and 807 g a.i./ha of oxamyl. For the tobacco budworm trial, diluted” for “Diluted”, “concentrations,” for “concentration,”, “92” for “47”, “methomyl and 404” for “methomyl”, “two trays” for “one tray”

[3] = tested on: tobacco budworm (Heliothis virescens); test: Test B: control of tobacco budworm by soil application to tomato plants, excised-leaf feeding, visual mortality; conditions: 96 h, read-out: % Mortality (Observed)
Experimental: as §2, §3
as §1, with “For the cabbage looper trial, diluted solutions (50 mL) of the test compounds were applied to the soil surface of five-week-old cabbage plants at the desired concentrations, corresponding to 135 g a.i./ha (g active ingredient/hectare) of methomyl and 404 and 807 g a.i./ha of oxamyl. For the tobacco budworm trial, diluted” for “Diluted”, “concentrations,” for “concentration,”, “92” for “47”, “methomyl and 404” for “methomyl”, “two trays” for “one tray”

SMILES: CNC(=O)ON=C(C)SC [Methomyl, methyl N-[[(methylamino)carbonyl]oxy]-ethanimidothioate]
- mortality at 47 g/ha ([1]; Spodoptera exigua, methomyl 47 g a.i./ha, soil application, five-week-old tomato plants, evaluated at 96 h, read-out: % mortality (observed)): 44%
- mortality at 135 g/ha ([2]; methomyl 135 g a.i./ha, soil application, five-week-old cabbage plants): 75%
- mortality at 92 g/ha ([3]; methomyl 92 g a.i./ha, soil application, five-week-old tomato plants): 41%

SMILES: CNC(=O)ON=C(SC)C(=O)N(C)C [Oxamyl, methyl 2-(dimethylamino)-N-[[(methylamino)-carbonyl]oxy]-2-oxoethanimidothioate]
- mortality at 807 g/ha ([1]; Spodoptera exigua, soil, 96 h, read-out: % mortality (observed)): 0%
- % mortality (observed) ([1]; oxamyl 807 g a.i./ha, soil application, five-week-old tomato plants, evaluated at 96 h): no mortality
- mortality at 404 g/ha ([2]; soil): 16%
- mortality at 807 g/ha ([2]; soil): 38%
- mortality at 404 g/ha ([3]; soil): 6%
- mortality at 807 g/ha ([3]; soil): 13%
